Test results taken from ChEMBL document CHEMBL1201862, “PubChem BioAssay data set” (2004).
Activity calls are given as the source filed them.

Key:
[1] = Counterscreen for antagonists of the orexin 1 receptor (OX1R; HCRTR1): Fluorescence-based cell-based high throughput dose response assay to identify antagonists of the parental CHO cell line. [Related pubchem assays (depositor defined):AID434989, AID435008, AID463079, AID485270, AID492963, AID492964, AID492965, AID493232, AID504699, AID504701]; assay type: functional
[2] = molecular target: T1, Orexin/Hypocretin receptor type 1 (Homo sapiens, UniProt O43613); assay: Fluorescence-based cell-based high throughput dose response assay for antagonists of the orexin 1 receptor (OX1R; HCRTR1). [Related pubchem assays (depositor defined):AID434989, AID435008, AID463079, AID485270, AID492963, AID492964, AID492965, AID493232, AID504717, AID504718]; assay type: functional
T1 sequence (O43613 whole entry): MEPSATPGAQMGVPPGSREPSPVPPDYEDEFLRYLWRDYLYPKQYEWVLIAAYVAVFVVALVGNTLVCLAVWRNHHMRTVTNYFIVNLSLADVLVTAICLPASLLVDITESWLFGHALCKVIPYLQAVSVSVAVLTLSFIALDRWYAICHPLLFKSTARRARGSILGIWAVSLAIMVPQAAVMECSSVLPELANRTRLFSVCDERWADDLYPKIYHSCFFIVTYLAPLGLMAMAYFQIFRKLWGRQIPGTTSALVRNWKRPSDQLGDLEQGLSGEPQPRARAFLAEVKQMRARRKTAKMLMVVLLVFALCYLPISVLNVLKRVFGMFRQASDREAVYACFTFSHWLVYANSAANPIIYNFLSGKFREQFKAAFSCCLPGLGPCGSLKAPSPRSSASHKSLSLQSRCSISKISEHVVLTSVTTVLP

Orexin receptor type 2 [3] = molecular target: T2, Orexin receptor type 2 (Homo sapiens, UniProt O43614); assay: Counterscreen assay for antagonists of the orexin 1 receptor (OX1R; HCRTR1): Fluorescence-based cell-based dose response assay for antagonists of the orexin 2 receptor (OX2R; HCRTR2), run by assay provider.; assay type: functional
T2 sequence (O43614 whole entry): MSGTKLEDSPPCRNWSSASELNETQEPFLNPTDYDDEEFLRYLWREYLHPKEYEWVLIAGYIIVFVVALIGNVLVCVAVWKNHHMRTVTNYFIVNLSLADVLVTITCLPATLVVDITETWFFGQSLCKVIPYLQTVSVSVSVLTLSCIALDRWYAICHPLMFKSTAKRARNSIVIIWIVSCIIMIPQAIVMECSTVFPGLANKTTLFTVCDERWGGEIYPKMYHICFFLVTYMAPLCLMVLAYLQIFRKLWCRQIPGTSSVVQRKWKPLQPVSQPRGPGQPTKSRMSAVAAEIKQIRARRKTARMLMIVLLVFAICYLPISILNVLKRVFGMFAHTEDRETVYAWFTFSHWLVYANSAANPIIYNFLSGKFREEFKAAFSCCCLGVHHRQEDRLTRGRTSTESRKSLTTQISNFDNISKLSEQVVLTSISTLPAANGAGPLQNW

Orexin receptor type 2 [4] = molecular target: T2, Orexin receptor type 2; assay: Counterscreen assay for antagonists of the orexin 1 receptor (OX1R; HCRTR1): Homogeneous Time Resolved Fluorescence (HTRF)-based cell-based dose response assay for antagonists of the orexin 2 receptor (OX2R; HCRTR2), run by assay provider.; assay type: functional
CHO-K1 = assay: Counterscreen for antagonists of the orexin 1 receptor (OX1R; HCRTR1): Homogeneous time resolved fluorescence (HTRF)-based cell-based dose response assay to identify antagonists of the parental CHO-K1 cell line. [Related pubchem assays (depositor defined):AID434989, AID435008, AID463079, AID485270, AID492963, AID492964, AID492965, AID493232, AID504699, AID504701]; assay type: functional; conditions: Cricetulus griseus;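 note: potency for inhibition of ATP-stimulated IP1 production as antagonists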
[5] = molecular target: T1, Orexin/Hypocretin receptor type 1; assay: Homogeneous Time Resolved Fluorescence (HTRF)-based cell-based high throughput dose response assay for antagonists of the orexin 1 receptor (OX1R; HCRTR1). [Related pubchem assays (depositor defined):AID434989, AID435008, AID463079, AID485270, AID492963, AID492964, AID492965, AID493232, AID504717, AID504718]; assay type: functional
[6] = molecular target: T3, Voltage-gated N-type calcium channel alpha-1B subunit/Amyloid beta A4 precursor protein-binding family A member 1 (Homo sapiens, UniProt Q00975+Q02410); assay type: protein assay
Trypsin = Trypsin (Sus scrofa, UniProt P00761); assay: porcine trypsin inhibitors, dose response, selectivity assay for Rce1 protease inhibitor project, biochemical, quenched peptide fluorescence, cherry-pick (AID 488789)
[7] = molecular target: T3, Voltage-gated N-type calcium channel alpha-1B subunit/Amyloid beta A4 precursor protein-binding family A member 1; assay type: protein assay; remark: listed apart in the source
[8] = molecular target: T4, Neuropeptides B/W receptor type 1 (Homo sapiens, UniProt P48145); assay: GPR7 antagonist potency, late-stage follow-up, cell-based, fluorescence, dose response, set 6 (AID 588583); assay type: functional
T4 sequence (P48145 whole entry): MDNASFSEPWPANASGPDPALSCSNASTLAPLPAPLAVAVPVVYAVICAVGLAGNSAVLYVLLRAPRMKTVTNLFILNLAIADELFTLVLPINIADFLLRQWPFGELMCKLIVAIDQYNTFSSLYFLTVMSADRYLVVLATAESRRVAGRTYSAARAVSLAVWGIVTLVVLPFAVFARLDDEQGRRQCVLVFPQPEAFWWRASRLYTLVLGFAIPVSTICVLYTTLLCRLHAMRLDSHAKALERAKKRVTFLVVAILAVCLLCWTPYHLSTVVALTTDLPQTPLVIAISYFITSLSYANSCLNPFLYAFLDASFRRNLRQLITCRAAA

[9] = molecular target: Melanin-concentrating hormone receptor 1 (Homo sapiens, UniProt Q99705); assay: Late-stage fluorescence-based counterscreen for antagonists of the G-protein coupled receptor 7 (GPR7): cell-based dose response assay to identify antagonists of the melanin-concentrating hormone receptor 1 (MCHR1) Set 6.; assay type: functional
Melanocortin receptor 4 = Melanocortin receptor 4 (Homo sapiens, UniProt P32245); assay type: functional, cell-based;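 note: Cell-based assay with luminescence read-out, confirmatory dose-response testing for agonist activity of biased ligands at MC4R; human U2OS cells with tagged receptor and beta-arrestin; potency of agonists that increase receptor coupling to beta-arrestin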
[10] = HEp-2 cell cytotoxicity, dose response, cytotoxicity control for RSV inhibitor project, HTS (AID 2410); assay type: functional; conditions: human respiratory syncytial virus
[11] = molecular target: T5, High affinity choline transporter 1 (Homo sapiens, UniProt Q9GZV3); assay: CHT inhibitors, dose response, cell-based, 5-point CRC, membrane potential dye (AID 504840); assay type: functional
T5 sequence (Q9GZV3 whole entry): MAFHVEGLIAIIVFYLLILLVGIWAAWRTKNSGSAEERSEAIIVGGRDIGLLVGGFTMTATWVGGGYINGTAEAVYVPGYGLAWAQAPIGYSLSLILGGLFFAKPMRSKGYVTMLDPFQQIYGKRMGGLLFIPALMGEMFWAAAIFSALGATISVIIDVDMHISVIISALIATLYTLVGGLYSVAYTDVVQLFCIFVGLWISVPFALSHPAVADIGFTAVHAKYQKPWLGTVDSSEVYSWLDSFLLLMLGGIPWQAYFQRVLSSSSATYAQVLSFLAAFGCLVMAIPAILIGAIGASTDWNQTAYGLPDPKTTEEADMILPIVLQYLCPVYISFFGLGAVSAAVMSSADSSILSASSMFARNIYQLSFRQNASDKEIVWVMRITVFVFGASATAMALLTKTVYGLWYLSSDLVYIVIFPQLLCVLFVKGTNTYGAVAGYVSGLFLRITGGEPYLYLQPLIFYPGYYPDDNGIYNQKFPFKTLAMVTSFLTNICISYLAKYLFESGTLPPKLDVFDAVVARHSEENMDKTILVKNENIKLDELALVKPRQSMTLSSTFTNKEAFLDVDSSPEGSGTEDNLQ

[12] = molecular target: Heat shock protein HSP 90-alpha (Homo sapiens, UniProt P07900); assay type: functional, organism-based
[13] = molecular target: T5, High affinity choline transporter 1; assay: CHT inhibitors, dose response, cell-based, 10-point CRC, membrane potential dye (AID 588401); assay type: functional;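 note: membrane potential dye fluorescence of choline-evoked depolarization via CHT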
Insulin-degrading enzyme [14] = molecular target: T6, Insulin-degrading enzyme (Homo sapiens, UniProt P14735); assay: activators of recombinant IDE enzyme, dose response, counter-screen for IDE activator project, biochemical, fluorescence polarization (AID 588681)
T6 sequence (P14735 whole entry): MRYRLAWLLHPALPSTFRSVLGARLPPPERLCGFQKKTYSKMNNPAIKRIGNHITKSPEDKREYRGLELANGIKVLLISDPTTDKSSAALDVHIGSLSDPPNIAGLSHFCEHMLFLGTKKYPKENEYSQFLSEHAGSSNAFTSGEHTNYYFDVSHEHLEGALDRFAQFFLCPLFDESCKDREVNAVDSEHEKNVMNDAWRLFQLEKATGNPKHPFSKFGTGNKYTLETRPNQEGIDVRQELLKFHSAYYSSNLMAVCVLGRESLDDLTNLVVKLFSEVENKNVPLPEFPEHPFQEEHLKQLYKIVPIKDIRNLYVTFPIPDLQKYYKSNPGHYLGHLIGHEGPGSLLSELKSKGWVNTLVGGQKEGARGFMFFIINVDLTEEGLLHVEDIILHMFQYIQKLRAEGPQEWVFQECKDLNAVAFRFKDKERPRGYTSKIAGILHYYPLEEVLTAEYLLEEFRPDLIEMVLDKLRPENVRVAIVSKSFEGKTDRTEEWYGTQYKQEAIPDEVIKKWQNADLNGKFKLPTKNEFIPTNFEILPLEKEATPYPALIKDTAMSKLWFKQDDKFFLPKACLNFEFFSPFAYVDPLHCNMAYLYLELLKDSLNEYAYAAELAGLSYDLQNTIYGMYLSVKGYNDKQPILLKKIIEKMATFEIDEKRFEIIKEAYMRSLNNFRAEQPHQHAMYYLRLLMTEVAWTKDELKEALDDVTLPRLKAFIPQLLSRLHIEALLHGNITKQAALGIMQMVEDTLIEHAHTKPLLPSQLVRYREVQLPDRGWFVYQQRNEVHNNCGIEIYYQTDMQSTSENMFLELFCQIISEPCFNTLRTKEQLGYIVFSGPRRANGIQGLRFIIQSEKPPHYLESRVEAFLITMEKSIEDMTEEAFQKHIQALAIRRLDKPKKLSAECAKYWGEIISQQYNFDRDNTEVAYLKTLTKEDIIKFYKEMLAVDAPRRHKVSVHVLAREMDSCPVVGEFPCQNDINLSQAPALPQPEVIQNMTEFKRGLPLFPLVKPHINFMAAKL

HEK293 [15] = assay: HEK cell cytotoxicity by LDH release, dose response, cytotoxicity control for IDE activator project, fluorescence, HEK cells (AID 588440); assay type: functional, cell-based; conditions: Homo sapiens;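 note: cytotoxicity by LDH release measuring loss of membrane integrity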
Insulin-degrading enzyme [16] = molecular target: T6, Insulin-degrading enzyme; assay: activators of endogenous IDE in HEK cells, dose response, cell-based, fluorescence polarization (AID 588439); assay type: functional
HEK293 [17] = assay: optical interference in Abeta FP readout, dose response, artefact control for IDE activator project, biochemical, fluorescence polarization (AID 588442); assay type: functional, cell-based; conditions: Homo sapiens
[18] = molecular target: T7, Polyadenylate-binding protein 1 (Homo sapiens, UniProt P11940); assay: PABP1 MLLE–PAM2 interaction inhibitors, dose response, miRNA deadenylation inhibitor project, biochemical, fluorescence polarization, Cy5-PAM2 peptide, secondary (AID 602260); assay type: functional; conditions: read-out: IC50_Mean
[19] = molecular target: Mitochondrial peptide methionine sulfoxide reductase (Bos taurus, UniProt P54149); assay: Absorbance-based biochemical high throughput dose response assay for activators of Methionine sulfoxide reductase A (MsrA).; assay type: functional
[20] = molecular target: T7, Polyadenylate-binding protein 1; assay: PABP1 MLLE–PAM2 binding inhibitor potency, dose response, biochemical, fluorescence polarization, FITC-PAM2 peptide (AID 602259); assay type: functional; conditions: read-out: IC50_Mean

Sequence of Melanin-concentrating hormone receptor 1 (Q99705 whole entry): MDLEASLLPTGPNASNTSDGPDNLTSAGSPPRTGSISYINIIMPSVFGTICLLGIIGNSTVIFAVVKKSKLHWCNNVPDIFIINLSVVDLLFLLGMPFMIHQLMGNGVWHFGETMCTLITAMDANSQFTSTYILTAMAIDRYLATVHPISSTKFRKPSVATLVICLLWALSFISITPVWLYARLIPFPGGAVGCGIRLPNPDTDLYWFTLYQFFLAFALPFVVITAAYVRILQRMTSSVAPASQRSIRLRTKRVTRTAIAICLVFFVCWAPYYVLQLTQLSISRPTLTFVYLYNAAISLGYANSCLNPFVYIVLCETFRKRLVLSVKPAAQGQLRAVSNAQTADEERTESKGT
T7 sequence (P11940 whole entry): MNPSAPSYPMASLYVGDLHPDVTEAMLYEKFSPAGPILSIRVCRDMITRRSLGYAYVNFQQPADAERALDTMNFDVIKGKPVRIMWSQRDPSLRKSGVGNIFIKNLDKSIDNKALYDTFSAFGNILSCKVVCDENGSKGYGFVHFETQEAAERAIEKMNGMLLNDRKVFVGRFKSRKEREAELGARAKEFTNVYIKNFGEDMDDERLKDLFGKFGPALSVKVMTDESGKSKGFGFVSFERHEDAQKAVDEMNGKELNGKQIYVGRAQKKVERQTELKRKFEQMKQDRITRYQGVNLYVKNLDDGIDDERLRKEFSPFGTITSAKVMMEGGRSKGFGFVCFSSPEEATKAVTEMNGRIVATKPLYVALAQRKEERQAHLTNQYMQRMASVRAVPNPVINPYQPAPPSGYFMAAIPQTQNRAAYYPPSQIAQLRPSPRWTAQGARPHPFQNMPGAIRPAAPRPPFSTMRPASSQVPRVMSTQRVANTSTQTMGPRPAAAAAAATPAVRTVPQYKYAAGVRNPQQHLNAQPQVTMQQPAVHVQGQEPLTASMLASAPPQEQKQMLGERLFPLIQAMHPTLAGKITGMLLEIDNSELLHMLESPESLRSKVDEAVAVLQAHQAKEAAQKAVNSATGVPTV
T3 sequence (Q00975 whole entry): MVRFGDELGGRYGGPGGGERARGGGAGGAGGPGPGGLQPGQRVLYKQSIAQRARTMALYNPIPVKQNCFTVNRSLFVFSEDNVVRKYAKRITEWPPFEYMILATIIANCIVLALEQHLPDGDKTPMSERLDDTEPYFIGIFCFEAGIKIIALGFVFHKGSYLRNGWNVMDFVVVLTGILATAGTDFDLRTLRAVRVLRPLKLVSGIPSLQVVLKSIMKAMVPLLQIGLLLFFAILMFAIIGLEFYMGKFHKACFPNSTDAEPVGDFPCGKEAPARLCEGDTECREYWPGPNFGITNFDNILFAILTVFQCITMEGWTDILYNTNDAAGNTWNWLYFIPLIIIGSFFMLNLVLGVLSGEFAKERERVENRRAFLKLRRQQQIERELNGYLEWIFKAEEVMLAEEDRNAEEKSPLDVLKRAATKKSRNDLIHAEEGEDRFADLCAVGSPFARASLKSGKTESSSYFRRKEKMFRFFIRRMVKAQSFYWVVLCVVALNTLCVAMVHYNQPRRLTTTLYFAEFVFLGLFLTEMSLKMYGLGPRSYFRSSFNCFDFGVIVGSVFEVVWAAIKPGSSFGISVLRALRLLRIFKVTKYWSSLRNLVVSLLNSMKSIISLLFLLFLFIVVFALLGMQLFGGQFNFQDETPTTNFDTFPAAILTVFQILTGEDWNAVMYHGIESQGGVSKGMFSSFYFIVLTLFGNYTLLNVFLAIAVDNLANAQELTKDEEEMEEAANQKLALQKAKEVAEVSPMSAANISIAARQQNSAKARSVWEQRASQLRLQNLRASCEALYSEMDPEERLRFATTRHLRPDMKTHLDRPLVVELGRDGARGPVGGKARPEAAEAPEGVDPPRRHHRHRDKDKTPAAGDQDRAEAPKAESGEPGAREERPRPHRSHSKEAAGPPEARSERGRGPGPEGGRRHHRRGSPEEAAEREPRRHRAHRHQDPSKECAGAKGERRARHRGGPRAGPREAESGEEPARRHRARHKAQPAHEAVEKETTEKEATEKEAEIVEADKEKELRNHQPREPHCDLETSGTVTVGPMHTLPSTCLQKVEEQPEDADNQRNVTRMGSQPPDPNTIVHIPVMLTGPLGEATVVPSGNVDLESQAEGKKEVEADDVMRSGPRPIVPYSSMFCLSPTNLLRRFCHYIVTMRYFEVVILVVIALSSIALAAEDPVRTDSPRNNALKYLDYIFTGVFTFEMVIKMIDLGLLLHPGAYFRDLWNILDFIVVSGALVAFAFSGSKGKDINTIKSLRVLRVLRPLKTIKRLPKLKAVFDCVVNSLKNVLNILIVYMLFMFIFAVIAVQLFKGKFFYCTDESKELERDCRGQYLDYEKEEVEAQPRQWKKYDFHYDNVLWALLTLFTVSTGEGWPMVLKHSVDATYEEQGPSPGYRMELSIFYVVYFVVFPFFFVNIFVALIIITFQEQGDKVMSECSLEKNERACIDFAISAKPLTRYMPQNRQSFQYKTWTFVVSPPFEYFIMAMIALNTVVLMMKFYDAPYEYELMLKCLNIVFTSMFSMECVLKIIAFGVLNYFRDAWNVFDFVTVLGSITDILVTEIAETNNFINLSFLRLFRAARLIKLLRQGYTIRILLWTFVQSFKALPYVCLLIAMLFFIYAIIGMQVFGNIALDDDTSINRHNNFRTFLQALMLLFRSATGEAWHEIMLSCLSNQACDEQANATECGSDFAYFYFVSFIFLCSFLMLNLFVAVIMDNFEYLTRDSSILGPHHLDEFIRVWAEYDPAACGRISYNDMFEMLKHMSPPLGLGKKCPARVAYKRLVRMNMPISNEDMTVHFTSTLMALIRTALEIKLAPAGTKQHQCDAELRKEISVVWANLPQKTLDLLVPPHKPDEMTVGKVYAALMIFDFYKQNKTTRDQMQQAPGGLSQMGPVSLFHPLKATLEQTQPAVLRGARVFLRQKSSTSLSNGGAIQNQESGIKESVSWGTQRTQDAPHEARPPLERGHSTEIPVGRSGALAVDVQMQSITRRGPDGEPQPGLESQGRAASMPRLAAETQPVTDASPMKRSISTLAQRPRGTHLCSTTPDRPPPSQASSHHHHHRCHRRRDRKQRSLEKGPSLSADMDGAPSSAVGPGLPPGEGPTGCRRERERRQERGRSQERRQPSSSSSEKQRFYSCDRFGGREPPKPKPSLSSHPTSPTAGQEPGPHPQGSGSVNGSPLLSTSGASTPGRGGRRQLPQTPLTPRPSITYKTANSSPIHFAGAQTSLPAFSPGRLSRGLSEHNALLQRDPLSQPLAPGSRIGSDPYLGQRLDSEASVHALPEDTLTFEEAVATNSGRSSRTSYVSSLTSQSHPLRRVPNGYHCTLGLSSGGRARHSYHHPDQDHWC
T3 sequence (Q02410 whole entry): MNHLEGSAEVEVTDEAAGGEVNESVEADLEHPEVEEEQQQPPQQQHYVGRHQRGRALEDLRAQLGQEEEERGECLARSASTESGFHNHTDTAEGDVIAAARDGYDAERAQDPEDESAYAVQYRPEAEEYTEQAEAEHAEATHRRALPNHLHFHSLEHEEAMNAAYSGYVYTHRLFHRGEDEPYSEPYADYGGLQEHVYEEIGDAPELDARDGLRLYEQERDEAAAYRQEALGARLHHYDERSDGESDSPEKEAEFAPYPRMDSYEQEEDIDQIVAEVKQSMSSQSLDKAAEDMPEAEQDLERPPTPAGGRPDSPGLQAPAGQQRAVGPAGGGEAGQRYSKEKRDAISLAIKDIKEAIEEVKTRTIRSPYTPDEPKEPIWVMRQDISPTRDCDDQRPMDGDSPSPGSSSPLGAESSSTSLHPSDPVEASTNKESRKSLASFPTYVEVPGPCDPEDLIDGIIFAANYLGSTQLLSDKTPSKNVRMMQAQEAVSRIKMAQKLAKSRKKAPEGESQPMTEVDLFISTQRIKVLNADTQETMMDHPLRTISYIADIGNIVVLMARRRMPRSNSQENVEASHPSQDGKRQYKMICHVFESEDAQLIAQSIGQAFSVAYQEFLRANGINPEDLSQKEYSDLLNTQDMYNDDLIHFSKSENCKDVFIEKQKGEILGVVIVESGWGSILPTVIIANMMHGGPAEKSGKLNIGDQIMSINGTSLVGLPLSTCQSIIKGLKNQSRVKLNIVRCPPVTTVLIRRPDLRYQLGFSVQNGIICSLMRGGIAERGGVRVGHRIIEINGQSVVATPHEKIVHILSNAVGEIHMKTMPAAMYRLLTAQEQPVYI
Sequence of Mitochondrial peptide methionine sulfoxide reductase (P54149 whole entry): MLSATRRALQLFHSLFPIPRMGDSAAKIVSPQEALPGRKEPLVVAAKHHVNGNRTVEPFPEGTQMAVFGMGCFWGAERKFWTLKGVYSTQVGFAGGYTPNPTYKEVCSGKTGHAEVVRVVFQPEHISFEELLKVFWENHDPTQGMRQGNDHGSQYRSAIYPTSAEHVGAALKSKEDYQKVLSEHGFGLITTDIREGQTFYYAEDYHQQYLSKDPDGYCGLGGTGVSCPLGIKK
Sequence of Melanocortin receptor 4 (P32245 whole entry): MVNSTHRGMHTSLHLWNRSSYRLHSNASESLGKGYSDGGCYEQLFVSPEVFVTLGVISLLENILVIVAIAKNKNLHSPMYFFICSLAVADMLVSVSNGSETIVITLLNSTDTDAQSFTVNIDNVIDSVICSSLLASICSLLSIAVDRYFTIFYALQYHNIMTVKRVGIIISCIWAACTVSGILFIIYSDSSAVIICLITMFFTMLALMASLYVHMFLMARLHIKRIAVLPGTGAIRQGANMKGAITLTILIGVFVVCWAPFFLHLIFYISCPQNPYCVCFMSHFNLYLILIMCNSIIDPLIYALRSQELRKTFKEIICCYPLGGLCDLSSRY
Sequence of Trypsin (P00761 whole entry): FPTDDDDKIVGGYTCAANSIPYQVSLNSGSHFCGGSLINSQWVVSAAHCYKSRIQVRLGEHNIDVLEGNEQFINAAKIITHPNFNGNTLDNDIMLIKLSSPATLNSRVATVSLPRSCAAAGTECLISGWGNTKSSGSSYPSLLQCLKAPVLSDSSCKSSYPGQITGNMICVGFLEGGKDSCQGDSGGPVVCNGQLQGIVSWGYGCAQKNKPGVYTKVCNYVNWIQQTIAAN

Cc1cccc(NC(=O)[C@@H]2CCCN2S(=O)(=O)c2ccc(Cl)cc2)c1
active: IC50 [2] 4.23 µM | IC50 (Orexin receptor type 2 [3]) 1.4 µM | IC50 (Orexin receptor type 2 [4]) 0.37 µM | IC50 [5] 0.153 µM
inactive: IC50 [1] > 49.7 µM | IC50 (CHO-K1) > 66.2 µM

O=C(CN1C(=O)/C(=C\c2cccc(Br)c2)Oc2ccccc21)NCC1CCCO1 (stereo not drawn)
inactive: IC50 [1] > 49.8 µM | IC50 [6] > 50 µM | IC50 (Orexin receptor type 2 [3]) > 88.8 µM | IC50 (Orexin receptor type 2 [4]) > 50 µM | IC50 (CHO-K1) > 66.2 µM
active: IC50 [2] 1.08 µM | AC50 (Trypsin) 4.3 µM | IC50 [7] 4.98 µM | IC50 [5] 0.314 µM

COc1ccc(Oc2c(CCl)cnn(Cc3cccc4ccccc34)c2=O)cc1
active: IC50 [8] 2.87 µM | IC50 [9] 2.87 µM

O=C(NC(c1ccccc1)c1ccc2ccccc2n1)C1CCN(CCOc2ccc(Cl)cc2Cl)CC1 (stereo not drawn)
inactive: EC50 (Melanocortin receptor 4) > 89.2 µM

Oc1c(Br)cc(Br)cc1/C=N\c1cccnc1
active: CC50 [10] 17.3 µM | IC50 [11] 4.37 µM | AC50 [12] 3.09 µM | IC50 [13] 2.99 µM

O=C(CSc1c2c(nc3ccc(Cl)cc13)CCCC2)NCCCN1CCOCC1
active: IC50 [11] 4.29 µM | IC50 [13] 4.47 µM

C[C@@H]1O[C@@H](O[C@H]2[C@H](O[C@H]3C[C@]4(C)[C@H](CC(O)C5[C@@H]([C@]6(C)CC[C@@H](C(C)(C)O)O6)CC[C@]54C)[C@@]4(C)CC[C@H](O)C(C)(C)C34)O[C@H](CO)[C@@H](O)[C@@H]2O)[C@H](O)[C@H](O)[C@H]1O (stereo partly drawn)
inactive: EC50 (Insulin-degrading enzyme [14]) > 54.7 µM | IC50 (HEK293 [15]) > 89.2 µM | EC50 (Insulin-degrading enzyme [16]) > 54.7 µM | EC50 (HEK293 [17]) > 54.7 µM

N#CCc1c(Cl)cnn(Cc2cccc3ccccc23)c1=O
active: IC50 [8] 2.69 µM | IC50 [9] 2.69 µM

CC(C)CNc1nc(S)nc(N(C)C)n1
inactive: IC50 [18] > 66 µM | EC50 [19] > 104 µM | IC50 [20] > 66 µM
